Results as given in ChEMBL document CHEMBL4385627, “Rational approaches, design strategies, structure activity relationship and mechanistic insights for therapeutic coumarin hybrids” (Bioorg Med Chem, 2019).
pIC50: −log10 of the molar value. ≈ marks a conversion by molar mass, not a printed value. Blank lines part the entries; values can stand above or below the molecule they belong to.

Key:
Trichomonas vaginalis = assay: Trichomonacidal against metronidazole-susceptible Trichomonas vaginalis after 48 hrs by trypan blue exclusion assay; format: functional, organism-based
HeLa = assay: Cytotoxicity against human HeLa cells after 24 hrs by MTT assay; format: cell-based
Spermatozoa = assay: Spermicidal activity against human spermatozoa shaken for 10 secs by phase contrast microscopy; format: functional, cell-based
Lactobacillus jensenii = assay: Inhibition of Lactobacillus jensenii ATCC 25258 assessed as reduction in number of cells by measuring turbidity after 24 hrs; format: organism-based; conditions: ATCC 25258, 24 h
[1] = Growth inhibition of BHK21 cells at 1 uM incubated for 48 hrs by SRB assay relative to control; format: cell-based, Mesocricetus auratus, BHK-21; conditions: hamster, read-out: GI
[2] = Growth inhibition of BHK21 cells at 100 uM incubated for 48 hrs by SRB assay relative to control; format: cell-based, Mesocricetus auratus, BHK-21; conditions: hamster, read-out: GI
[3] = Growth inhibition of BHK21 cells at 0.1 uM incubated for 48 hrs by SRB assay relative to control; format: cell-based, Mesocricetus auratus, BHK-21; conditions: hamster, read-out: GI
[4] = Growth inhibition of BHK21 cells at 10 uM incubated for 48 hrs by SRB assay relative to control; format: cell-based, Mesocricetus auratus, BHK-21; conditions: hamster, read-out: GI
[5] = Inhibition of bovine kidney ALR1 using sodium D-glucoronic acid as substrate preincubated for 5 mins followed by NADPH addition and measured after 10 mins by spectrophotometric analysis; parameters: species or system Bos taurus
[6] = Inhibition of calf ALR2 using DL-glyceraldehyde as substrate preincubated for 5 mins followed by NADPH addition and measured after 10 mins by spectrophotometric analysis; parameters: species or system Bos taurus
MDA-MB-435 = assay: Growth inhibition of human MDA-MB-435 cells by SRB assay; format: functional
MCF7 = assay: Growth inhibition of human MCF7 cells by SRB assay; format: functional
Rattus norvegicus [7] = assay: Antitumor activity against NMU challenged Sprague-Dawley rat assessed as tumor volume at 5 mg/kg, po administered once per day for 6 weeks via gavage followed by NMU post challenge for 2 weeks (reference value: 4.8 +/- 0.14 mm3); format: functional
[8] = Inhibition of calf intestinal alkaline phosphatase using p-nitrophenyl phosphate as substrate preincubated for 10 mins followed by substrate addition and measured after 30 mins by spectrometry based assay; parameters: species or system Bos taurus
[9] = Inhibition of Saccharomyces cerevisiae alpha-glucosidase using p-nitrophenyl-alpha-D-glucopyranoside as substrate preincubated for 10 mins followed by substrate addition and measured after 30 mins by spectrophotometric analysis
Leishmania major [10] = assay: Antileishmanial activity against Leishmania major at 10 uM incubated for 72 hrs by MTT assay relative to control; format: functional
Leishmania major [11] = assay: Antileishmanial activity against Leishmania major at 100 uM incubated for 72 hrs by MTT assay relative to control; format: functional
Leishmania major [12] = assay: Antileishmanial activity against Leishmania major at 1 uM incubated for 72 hrs by MTT assay relative to control; format: functional
Leishmania major [13] = assay: Antileishmanial activity against Leishmania major at 0.1 uM incubated for 72 hrs by MTT assay relative to control; format: functional
Rattus norvegicus [14] = assay: Antiinflammatory activity in Wistar rat assessed as reduction in formalin-induced paw edema volume at 20 mg/kg, po administered 1 hr prior to formalin challenge and measured over 0 to 6 hrs post formalin challenge by plethysmography relative to control; format: functional
Pseudomonas aeruginosa = assay: Antibacterial activity against Pseudomonas aeruginosa MTCC 1688 by agar dilution method; format: functional
Escherichia coli = assay: Antibacterial activity against Escherichia coli MTCC 443 by agar dilution method; format: functional
Candida albicans = assay: Antifungal activity against Candida albicans MTCC 227 by agar dilution method; format: functional
Staphylococcus aureus [15] = assay: Antibacterial activity against Staphylococcus aureus MTCC 96 by agar dilution method; format: functional
Aspergillus niger = assay: Antifungal activity against Aspergillus niger MTCC 282 by agar dilution method; format: functional
Aspergillus clavatus = assay: Antifungal activity against Aspergillus clavatus MTCC 1323 by agar dilution method; format: functional
Acetylcholinesterase = Acetylcholinesterase (Homo sapiens, UniProt P22303); assay: Inhibition of human recombinant AchE using acetylthiocholine iodide as substrate preincubated for 5 mins followed by substrate addition and measured at 2 mins interval by Ellman's method
Sequence of Acetylcholinesterase (P22303 whole entry): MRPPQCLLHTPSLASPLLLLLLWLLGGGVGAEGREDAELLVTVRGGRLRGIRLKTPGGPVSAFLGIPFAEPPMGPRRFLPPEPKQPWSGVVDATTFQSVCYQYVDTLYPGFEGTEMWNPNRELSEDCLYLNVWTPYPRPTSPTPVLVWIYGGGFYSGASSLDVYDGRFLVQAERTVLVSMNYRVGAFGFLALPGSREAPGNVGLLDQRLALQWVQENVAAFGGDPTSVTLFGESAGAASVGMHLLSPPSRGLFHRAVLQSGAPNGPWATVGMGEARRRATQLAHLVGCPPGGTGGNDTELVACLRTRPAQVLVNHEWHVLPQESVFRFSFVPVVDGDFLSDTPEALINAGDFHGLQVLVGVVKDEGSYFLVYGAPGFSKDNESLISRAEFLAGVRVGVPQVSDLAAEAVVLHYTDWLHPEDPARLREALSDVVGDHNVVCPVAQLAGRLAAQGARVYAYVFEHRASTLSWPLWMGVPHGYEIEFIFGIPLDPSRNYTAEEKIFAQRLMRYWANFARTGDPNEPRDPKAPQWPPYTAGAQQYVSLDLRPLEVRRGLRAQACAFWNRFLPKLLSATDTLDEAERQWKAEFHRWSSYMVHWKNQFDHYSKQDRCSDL

A549 = assay: Cytotoxicity against human A549 cells incubated for 24 hrs by MTT assay; format: functional, cell-based; conditions: A549, 24 h
MDA-MB-231 = assay: Cytotoxicity against human MDA-MB-231 cells incubated for 24 hrs by MTT assay; format: functional, cell-based; conditions: MDA-MB-231, 24 h
HOP-92 = assay: Growth inhibition of human HOP92 cells at 10 uM after 48 hrs by SRB assay relative to control; format: functional; conditions: HOP-92, 48 h, read-out: GI
[16] = Antioxidant activity assessed as ABTS radical cation scavenging ability
A498 = assay: Growth inhibition of human A498 cells at 10 uM after 48 hrs by SRB assay relative to control; format: functional; conditions: A498, 48 h, read-out: GI
Alpha glucosidase = Alpha glucosidase (Homo sapiens, UniProt O43451+P10253+P14410+Q2M2H8); assay: Inhibition of alpha-glucosidase (unknown origin) using p-NPG as substrate preincubated for 5 mins followed by substrate addition and measured after 30 mins by spectrophotometric analysis; format: protein assay
[17] = Inhibition of rat intestinal maltase-glucoamylase using p-nitrophenyl alpha-D-glucoside as substrate preincubated for 5 mins followed by substrate addition and measured after 30 mins by spectrophotometric analysis
Vero = assay: Cytotoxicity against African green monkey Vero cells after 48 hrs by MTT assay; format: cell-based; conditions: Chlorocebus sabaeus
NCI-H157 [18] = assay: Growth inhibition of human NCI-H157 cells at 1 uM incubated for 48 hrs by SRB assay relative to control; format: functional; conditions: NCI-H157, 48 h, read-out: GI
NCI-H157 [19] = assay: Growth inhibition of human NCI-H157 cells at 0.1 uM incubated for 48 hrs by SRB assay relative to control; format: functional; conditions: NCI-H157, 48 h, read-out: GI
NCI-H157 [20] = assay: Growth inhibition of human NCI-H157 cells at 10 uM incubated for 48 hrs by SRB assay relative to control; format: functional; conditions: NCI-H157, 48 h, read-out: GI
NCI-H157 [21] = assay: Growth inhibition of human NCI-H157 cells at 100 uM incubated for 48 hrs by SRB assay relative to control; format: functional; conditions: NCI-H157, 48 h, read-out: GI
Staphylococcus aureus [22] = assay: Antimicrobial activity against Staphylococcus aureus incubated for 16 hrs by agar-well diffusion method; format: functional
[23] = Antioxidant activity assessed as superoxide anion radical scavenging activity by cyclic voltammetric analysis; format: functional
Urease = Urease (Canavalia ensiformis, UniProt P07374); assay: Inhibition of jack bean urease incubated for 30 mins by indophenol method
Sequence of Urease (P07374 whole entry): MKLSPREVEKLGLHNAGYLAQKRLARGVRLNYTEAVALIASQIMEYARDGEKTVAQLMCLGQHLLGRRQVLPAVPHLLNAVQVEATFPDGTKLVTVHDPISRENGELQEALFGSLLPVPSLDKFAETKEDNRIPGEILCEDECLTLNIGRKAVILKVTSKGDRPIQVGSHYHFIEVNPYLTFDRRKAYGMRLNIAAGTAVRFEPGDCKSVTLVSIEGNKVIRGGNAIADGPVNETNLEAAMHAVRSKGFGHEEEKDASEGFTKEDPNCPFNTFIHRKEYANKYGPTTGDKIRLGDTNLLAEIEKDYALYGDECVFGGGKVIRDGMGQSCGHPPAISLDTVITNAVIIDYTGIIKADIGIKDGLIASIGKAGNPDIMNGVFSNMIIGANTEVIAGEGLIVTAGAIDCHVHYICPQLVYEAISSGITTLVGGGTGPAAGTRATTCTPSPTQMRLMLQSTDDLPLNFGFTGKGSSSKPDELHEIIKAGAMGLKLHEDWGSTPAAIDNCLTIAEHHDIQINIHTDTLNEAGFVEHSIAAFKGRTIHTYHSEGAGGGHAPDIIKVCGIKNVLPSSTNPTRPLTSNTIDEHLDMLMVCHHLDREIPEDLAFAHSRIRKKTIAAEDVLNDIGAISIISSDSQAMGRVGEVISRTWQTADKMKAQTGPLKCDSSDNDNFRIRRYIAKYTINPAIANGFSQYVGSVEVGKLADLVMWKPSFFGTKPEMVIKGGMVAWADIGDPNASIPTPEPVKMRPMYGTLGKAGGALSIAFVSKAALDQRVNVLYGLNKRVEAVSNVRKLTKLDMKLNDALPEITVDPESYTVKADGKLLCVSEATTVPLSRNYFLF

Cholinesterase = Cholinesterase (Homo sapiens, UniProt P06276); assay: Inhibition of human plasma BuChE using butyrylthiocholine iodide as substrate preincubated for 5 mins followed by substrate addition and measured at 2 mins interval by Ellman's method
Sequence of Cholinesterase (P06276 whole entry): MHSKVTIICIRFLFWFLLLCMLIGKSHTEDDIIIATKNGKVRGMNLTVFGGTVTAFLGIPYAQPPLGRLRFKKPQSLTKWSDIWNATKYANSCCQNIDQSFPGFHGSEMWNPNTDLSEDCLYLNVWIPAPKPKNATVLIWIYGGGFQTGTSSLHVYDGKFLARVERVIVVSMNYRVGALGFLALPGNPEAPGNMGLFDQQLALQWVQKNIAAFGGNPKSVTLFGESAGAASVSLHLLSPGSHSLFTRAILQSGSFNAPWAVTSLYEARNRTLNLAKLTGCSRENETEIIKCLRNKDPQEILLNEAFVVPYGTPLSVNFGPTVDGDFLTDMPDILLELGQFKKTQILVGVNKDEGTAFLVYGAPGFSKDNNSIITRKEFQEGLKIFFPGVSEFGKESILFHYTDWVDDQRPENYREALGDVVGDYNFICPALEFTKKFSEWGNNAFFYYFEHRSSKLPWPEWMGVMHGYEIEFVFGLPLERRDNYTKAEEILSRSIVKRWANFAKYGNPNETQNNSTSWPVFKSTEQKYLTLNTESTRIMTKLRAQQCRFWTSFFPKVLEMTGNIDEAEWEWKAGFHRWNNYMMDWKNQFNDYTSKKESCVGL

[24] = target: Amyloid-beta precursor protein (Homo sapiens) (UniProt P05067); assay: Inhibition of amyloid beta (1 to 40) (unknown origin) aggregation at 1 uM incubated for 1 hr by thioflavin T fluorescence spectroscopic method relative to control
Sequence of Amyloid-beta precursor protein (Homo sapiens) (P05067 whole entry): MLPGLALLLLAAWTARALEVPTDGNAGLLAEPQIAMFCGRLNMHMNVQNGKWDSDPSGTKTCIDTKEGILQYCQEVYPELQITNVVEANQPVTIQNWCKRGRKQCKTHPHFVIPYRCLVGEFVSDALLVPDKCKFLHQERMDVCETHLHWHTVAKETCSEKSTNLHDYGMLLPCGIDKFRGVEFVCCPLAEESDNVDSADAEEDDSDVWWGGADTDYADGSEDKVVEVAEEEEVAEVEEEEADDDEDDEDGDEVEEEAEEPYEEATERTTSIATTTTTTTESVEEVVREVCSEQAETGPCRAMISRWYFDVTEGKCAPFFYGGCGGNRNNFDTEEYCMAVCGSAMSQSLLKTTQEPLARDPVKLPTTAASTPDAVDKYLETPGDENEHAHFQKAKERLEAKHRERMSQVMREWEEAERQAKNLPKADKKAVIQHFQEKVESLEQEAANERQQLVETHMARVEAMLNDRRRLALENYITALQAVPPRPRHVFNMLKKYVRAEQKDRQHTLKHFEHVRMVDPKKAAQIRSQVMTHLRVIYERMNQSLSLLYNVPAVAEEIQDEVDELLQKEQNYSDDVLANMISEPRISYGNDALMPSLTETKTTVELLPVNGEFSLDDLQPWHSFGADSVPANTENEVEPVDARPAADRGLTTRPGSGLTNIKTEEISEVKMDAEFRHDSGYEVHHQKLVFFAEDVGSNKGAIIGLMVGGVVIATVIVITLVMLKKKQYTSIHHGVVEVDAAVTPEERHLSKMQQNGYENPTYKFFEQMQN

IC50 (Lactobacillus jensenii): > 1000 µg/mL
Compound: O=C(c1ccc(O)cc1)C(c1c(O)c2ccccc2oc1=O)N1CCCCC1 (stereo not given)
pIC50 (Trichomonas vaginalis): 4.53 | IC50 (HeLa): 234 µg/mL (≈ 617 µM) | pIC50 (Spermatozoa): 3.30

Compound: Cc1cc(C)cc(-n2c(-c3cc4ccccc4oc3=O)cs/c2=N/NC(=O)c2cc3ccccc3oc2=O)c1
inhibition at 48 h, 1 µM [1]: 59.4% | inhibition at 48 h, 100 µM [2]: 66.8% | inhibition at 48 h, 0.1 µM [3]: 55.5% | inhibition at 48 h, 10 µM [4]: 64.2%

pIC50 [5]: 5.77 | pIC50 [6]: 6.96
Compound: C/C(=N\Nc1nc(-c2cc3ccccc3oc2=O)cs1)c1ccc(Br)cc1

GI50 (MDA-MB-435): 75.3 µg/mL (≈ 187 µM) | GI50 (MCF7): < 10 µg/mL
Compound: O=C(/C=C/c1ccc(OCCN2CCCCC2)cc1)c1cc2ccccc2oc1=O
Activity (Rattus norvegicus [7]): 3.3 mm3

pIC50 [8]: 5.86
Compound: Cc1ccc(-n2c(-c3cc4ccccc4oc3=O)cs/c2=N/NC(=O)c2cc3ccccc3oc2=O)c(C)c1

pIC50 [9]: 5.20
Compound: O=C(N/N=C/c1cc(Cl)cc(Cl)c1O)c1nc(-c2cc3ccccc3oc2=O)cs1

pIC50 [9]: 5.08
Compound: O=C(N/N=C/c1cc(Cl)ccc1O)c1nc(-c2cc3ccccc3oc2=O)cs1

Compound: Cc1cccc(-n2c(-c3cc4ccccc4oc3=O)cs/c2=N/NC(=O)c2cc3ccccc3oc2=O)c1C
inhibition at 10 µM (Leishmania major [10]): 66.2% | inhibition at 100 µM (Leishmania major [11]): 70.4% | inhibition at 1 µM (Leishmania major [12]): 60.7% | inhibition at 0.1 µM (Leishmania major [13]): 53.9%

Compound: O=c1oc2ccc(Br)cc2cc1-c1nc2ccccc2[nH]1
inhibition in vivo at 20 mg/kg (Rattus norvegicus [14]): 45.5%

MIC (Pseudomonas aeruginosa): 100 µg/mL (≈ 268 µM) | MIC (Escherichia coli): 50 µg/mL (≈ 134 µM) | MIC (Candida albicans): 100 µg/mL (≈ 268 µM) | MIC (Staphylococcus aureus [15]): 50 µg/mL (≈ 134 µM) | MIC (Aspergillus niger): 100 µg/mL (≈ 268 µM) | MIC (Aspergillus clavatus): 100 µg/mL (≈ 268 µM)
Compound: C/C(=N\NC(=S)Nc1ccc(F)cc1F)c1cc2ccccc2oc1=O

Compound: O=C(Cc1cc(=O)oc2cc(O)ccc12)NCCCNCCNCCCNc1c2c(nc3ccccc13)CCCC2
pIC50 (Acetylcholinesterase): 7.42

Compound: O=c1oc2ccc(Cl)cc2cc1-c1nc2ccccc2[nH]1
inhibition in vivo at 20 mg/kg (Rattus norvegicus [14]): 46.8%

Compound: O=c1oc2ccccc2cc1-c1cc(-c2ccc(Cl)cc2)nc(Cc2ccc(F)cc2)n1
pIC50 (A549): 5.67 | pIC50 (MDA-MB-231): 4.78

Compound: Cc1cc(=O)oc2cc(Oc3nc(-c4ccc(B(O)O)s4)cn4c(-c5ccc(B(O)O)s5)cnc34)ccc12
inhibition of growth at 10 µM (HOP-92): 92.3%

pIC50 [16]: 4.73
Compound: CCOC(=O)C(C)(C)Oc1ccc(C(=O)c2cc3cc([N+](=O)[O-])ccc3oc2=O)cc1

Compound: Cc1cc(=O)oc2cc(Oc3nc(-c4ccc(B(O)O)cc4)cn4c(-c5ccc(B(O)O)cc5)cnc34)ccc12
inhibition of growth at 10 µM (A498): 90.1%

Compound: Nc1cc(Cl)ccc1/C(=N/Nc1nc(-c2cc3ccccc3oc2=O)cs1)c1ccccc1
pIC50 [6]: 6.34

Compound: COc1ccc(-c2cc(-c3cc4ccccc4oc3=O)nc(Cc3ccc(F)cc3)n2)cc1
pIC50 (A549): 4.79

IC50 (Alpha glucosidase): 110 nM | pIC50 [17]: 7.15
Compound: Cc1ccc(N2C(=O)/C(=C/c3ccc(F)cc3)S/C2=N\NC(=O)c2cc3ccccc3oc2=O)cc1

pIC50 [16]: 5.07
Compound: CCOC(=O)C(C)(C)Oc1ccc(C(=O)c2cc3cc(C)ccc3oc2=O)cc1

pIC50 [5]: 4.46 | pIC50 [6]: 6.80
Compound: C/C(=N\Nc1nc(-c2cc3ccccc3oc2=O)cs1)c1ccccc1Br

Compound: O=C(Nc1nc2ccccc2[nH]1)c1cc2ccccc2oc1=O
inhibition in vivo at 20 mg/kg (Rattus norvegicus [14]): 42.9%

pIC50 [17]: 6.42
Compound: COc1ccccc1N1C(=O)/C(=C/c2ccc(F)cc2)S/C1=N\NC(=O)c1cc2ccccc2oc1=O

Compound: O=Cc1c(-c2cc3cc(Br)ccc3oc2=O)[nH]c2ccccc12
pIC50 (Vero): 4.00

Compound: Cc1ccc(-n2c(-c3cc4ccccc4oc3=O)cs/c2=N/NC(=O)c2cc3ccccc3oc2=O)cc1C
inhibition of growth at 1 µM (NCI-H157 [18]): 53.8% | inhibition of growth at 0.1 µM (NCI-H157 [19]): 45.5% | inhibition of growth at 10 µM (NCI-H157 [20]): 57.3% | inhibition of growth at 100 µM (NCI-H157 [21]): 65%

Compound: O=C(O)c1cn(C2CC2)c2cc(N3CCNCC3)c(F)cc2c1=O [CIPROFLOXACIN]
MIC (Staphylococcus aureus [22]): 10 µg/mL (≈ 30.2 µM)

MIC (Staphylococcus aureus [22]): 2.5 µg/mL (≈ 4.89 µM)
Compound: CC(C)(C)NC(=O)c1c(-c2ccccc2)nc(SCc2cc(=O)oc3ccc4ccccc4c23)[nH]c1=O

pIC50 [23]: 4.19
Compound: O=C(OCc1cc(=O)oc2c(O)c(O)ccc12)c1cc(O)c(O)c(O)c1

Compound: C[C@@H]1[C@H](O)[C@@H](C)/C=C/C=C/C=C/C=C/C=C/C=C/C=C/[C@H](O[C@@H]2O[C@H](C)[C@@H](O)[C@H](N)[C@@H]2O)C[C@@H]2O[C@](O)(C[C@@H](O)C[C@@H](O)[C@H](O)CC[C@@H](O)C[C@@H](O)CC(=O)O[C@H]1C)C[C@H](O)[C@H]2C(=O)O [AMPHOTERICIN B]
inhibition at 10 µM (Leishmania major [10]): 76.3% | inhibition at 100 µM (Leishmania major [11]): 79.8% | inhibition at 1 µM (Leishmania major [12]): 74.8% | inhibition at 0.1 µM (Leishmania major [13]): 69.9%

pIC50 [5]: 5.53 | pIC50 [6]: 6.92
Compound: C/C(=N\Nc1nc(-c2cc3ccccc3oc2=O)cs1)c1ccccc1

Compound: NC(=S)N1N=C(c2cc3ccccc3oc2=O)CC1c1ccccc1 (stereo not given)
pIC50 (Urease): 6.45

Compound: O=C(Cc1cc(=O)oc2cc(O)ccc12)NCCCCCCCNc1c2c(nc3ccccc13)CCCC2
pIC50 (Cholinesterase): 7.20

inhibition [24]: 82%
Compound: O=C(Cc1cc(=O)oc2cc(O)ccc12)NCCCCCCCCNc1c2c(nc3ccccc13)CCCC2
